Earlier results as cited in US10172811B2, “Topical antifungal composition for treating onychomycosis” (Polichem S.A., priority 2013, dated 2019).

Experiments:
onychomycosis [1] = conditions: topical nail formulation; 48 weeks daily treatment, 12-week follow up
onychomycosis [2] = conditions: oral

Structure (SMILES)	Complete cure (onychomycosis [1])	Responders (onychomycosis [1]) [%]	Complete cure, proportion of patients (onychomycosis [2]) [%]
Cc1cc(C2CCCCC2)n(O)c(=O)c1 [ciclopirox]	about 13%	~30	
CN(C/C=C/C#CC(C)(C)C)Cc1cccc2ccccc12 [terbinafine]			38
